Experimental data: patent US20210284639A1, “TYROSINE AMIDE DERIVATIVES AS RHO- KINASE INHIBITORS” (CHIESI FARMACEUTICI S.p.A., priority 2018, published 2021)

What was measured:
ROCK 2 (Rho kinase 2) = ROCK 2 (Rho kinase 2) (Homo sapiens, UniProt O75116); assay: In vitro inhibitory activity assay (ADP-Glo), Rho kinase 2; format: biochemical; conditions: Ki by Cheng-Prusoff from IC50; 10 μM ATP, 25° C.
Experimental: (§1) In Vitro Inhibitory Activity Assay Description
(§2) The effectiveness of compounds of the present invention to inhibit Rho kinase activity can be determined in a 10 μl assay containing 40 mM Tris pH7.5, 20 mM MgCl2 0.1 mg/ml BSA, 50 μM DTT and 2.5 μM peptide substrate (Myelin Basic Protein) using an ADP-Glo kit (Promega). Compounds were dissolved in DMSO such that the final concentration of DMSO was 1% in the assay. All reactions/incubations are performed at 25° C. Compound (2 μl) and either Rho kinase 1 or 2 (4 μl) were mixed and incubated for 30 mins. Reactions were initiated by addition of ATP (4 μl) such that the final concentration of ATP in the assay was 10 μM. After a 1 hour incubation 10 μl of ADP-Glo Reagent was added and after a further 45 minute incubation 20 μl of Kinase Detection Buffer was added and the mixture incubated for a further 30 minutes. The luminescent signal was measured on a luminometer. […] Compounds were tested in dose-response format and the inhibition of kinase activity was calculated at each concentration of compound. To determine the IC50 (concentration of compound required to inhibit 50% of the enzyme activity) data were fit to a plot of % inhibition vs Log10 compound concentration using a sigmoidal fit with a variable slope and fixing the maximum to 100% and the minimum to 0%. To determine the Ki values the Cheng-Prusoff equation was utilized (Ki=IC50/(1+[S]/Km).

ROCK 1 (Rho kinase 1) = ROCK 1 (Rho kinase 1) (Homo sapiens, UniProt Q13464); assay: In vitro inhibitory activity assay (ADP-Glo), Rho kinase 1; format: biochemical; conditions: Ki by Cheng-Prusoff from IC50; 10 μM ATP, 25° C.
Chain of ROCK 1 (Rho kinase 1) (Q13464 whole entry): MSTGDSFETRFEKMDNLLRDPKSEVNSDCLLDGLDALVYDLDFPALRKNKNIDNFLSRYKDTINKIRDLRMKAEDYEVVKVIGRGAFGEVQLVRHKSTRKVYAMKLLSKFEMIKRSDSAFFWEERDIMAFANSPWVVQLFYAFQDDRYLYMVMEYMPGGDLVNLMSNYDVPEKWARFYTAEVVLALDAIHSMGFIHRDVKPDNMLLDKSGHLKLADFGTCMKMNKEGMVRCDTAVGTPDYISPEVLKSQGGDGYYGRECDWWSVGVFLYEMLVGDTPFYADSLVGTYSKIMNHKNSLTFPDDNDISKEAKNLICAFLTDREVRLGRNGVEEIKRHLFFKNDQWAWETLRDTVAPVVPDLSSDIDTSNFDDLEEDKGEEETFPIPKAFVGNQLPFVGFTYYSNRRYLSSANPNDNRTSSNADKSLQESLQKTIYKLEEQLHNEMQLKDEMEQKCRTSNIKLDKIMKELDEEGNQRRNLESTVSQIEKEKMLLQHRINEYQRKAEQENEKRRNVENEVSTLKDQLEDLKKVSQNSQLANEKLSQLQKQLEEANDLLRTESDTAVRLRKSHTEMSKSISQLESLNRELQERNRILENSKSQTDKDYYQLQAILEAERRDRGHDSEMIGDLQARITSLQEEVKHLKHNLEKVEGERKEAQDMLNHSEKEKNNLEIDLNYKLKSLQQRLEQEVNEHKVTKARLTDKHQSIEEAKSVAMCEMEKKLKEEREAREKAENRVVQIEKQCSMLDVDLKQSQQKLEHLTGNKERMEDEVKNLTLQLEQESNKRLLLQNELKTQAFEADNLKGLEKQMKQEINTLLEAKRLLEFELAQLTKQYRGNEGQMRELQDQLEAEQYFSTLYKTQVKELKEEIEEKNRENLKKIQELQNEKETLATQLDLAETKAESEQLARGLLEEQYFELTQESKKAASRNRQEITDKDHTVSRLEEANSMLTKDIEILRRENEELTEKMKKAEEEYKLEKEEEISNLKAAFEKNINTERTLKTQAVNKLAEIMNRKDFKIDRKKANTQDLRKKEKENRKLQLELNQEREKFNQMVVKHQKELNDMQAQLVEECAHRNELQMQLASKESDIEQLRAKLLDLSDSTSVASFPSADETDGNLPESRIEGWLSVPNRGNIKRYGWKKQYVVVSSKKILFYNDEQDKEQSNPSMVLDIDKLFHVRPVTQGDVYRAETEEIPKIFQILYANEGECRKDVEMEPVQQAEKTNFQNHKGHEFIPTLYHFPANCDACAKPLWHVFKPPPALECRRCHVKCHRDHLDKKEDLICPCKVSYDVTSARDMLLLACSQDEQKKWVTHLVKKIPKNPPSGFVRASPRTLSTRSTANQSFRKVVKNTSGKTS
Experimental: as §1, §2

Chain of ROCK 2 (Rho kinase 2) (O75116 whole entry): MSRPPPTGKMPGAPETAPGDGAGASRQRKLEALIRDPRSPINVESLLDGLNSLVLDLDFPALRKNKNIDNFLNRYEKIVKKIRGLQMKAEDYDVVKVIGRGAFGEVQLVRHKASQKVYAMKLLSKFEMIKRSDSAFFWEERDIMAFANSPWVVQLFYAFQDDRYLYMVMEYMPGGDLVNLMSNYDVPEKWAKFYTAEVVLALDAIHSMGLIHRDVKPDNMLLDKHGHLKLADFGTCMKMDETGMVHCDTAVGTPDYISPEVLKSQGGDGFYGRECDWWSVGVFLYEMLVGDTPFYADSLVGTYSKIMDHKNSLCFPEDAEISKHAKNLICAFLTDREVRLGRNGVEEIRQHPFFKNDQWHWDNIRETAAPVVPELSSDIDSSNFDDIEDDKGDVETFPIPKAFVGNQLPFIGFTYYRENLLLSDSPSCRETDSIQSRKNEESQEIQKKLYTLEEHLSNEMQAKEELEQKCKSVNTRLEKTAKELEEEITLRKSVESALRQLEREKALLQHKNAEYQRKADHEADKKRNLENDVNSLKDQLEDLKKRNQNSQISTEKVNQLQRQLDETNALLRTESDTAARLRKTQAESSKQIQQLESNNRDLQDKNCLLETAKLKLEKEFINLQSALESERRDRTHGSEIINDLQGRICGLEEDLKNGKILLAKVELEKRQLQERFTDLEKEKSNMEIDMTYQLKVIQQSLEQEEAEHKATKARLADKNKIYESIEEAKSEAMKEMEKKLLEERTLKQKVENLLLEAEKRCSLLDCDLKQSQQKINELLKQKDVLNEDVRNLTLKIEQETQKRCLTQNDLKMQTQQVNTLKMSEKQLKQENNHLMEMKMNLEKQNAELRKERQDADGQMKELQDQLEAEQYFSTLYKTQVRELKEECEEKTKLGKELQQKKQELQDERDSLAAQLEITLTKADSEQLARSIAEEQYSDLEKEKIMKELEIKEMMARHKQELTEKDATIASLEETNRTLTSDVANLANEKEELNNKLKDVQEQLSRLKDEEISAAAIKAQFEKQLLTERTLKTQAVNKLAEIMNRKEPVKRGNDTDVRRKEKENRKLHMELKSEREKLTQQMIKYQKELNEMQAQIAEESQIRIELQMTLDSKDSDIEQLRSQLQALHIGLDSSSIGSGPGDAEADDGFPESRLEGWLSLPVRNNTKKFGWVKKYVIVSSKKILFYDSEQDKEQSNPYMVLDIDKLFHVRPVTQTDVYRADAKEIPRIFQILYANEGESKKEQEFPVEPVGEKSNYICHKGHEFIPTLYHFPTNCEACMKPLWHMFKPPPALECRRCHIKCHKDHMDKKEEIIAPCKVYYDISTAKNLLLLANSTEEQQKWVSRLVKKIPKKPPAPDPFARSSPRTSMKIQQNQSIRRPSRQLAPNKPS

Row | SMILES | Ki (ROCK 2 (Rho kinase 2)) [nM] | Ki (ROCK 1 (Rho kinase 1)) [nM]
1 | Cc1c[nH]c2nccc(Oc3ccc(C[C@H](N)C(=O)NC4(C(N)=O)CCC4)cc3F)c12 [Example 27, (S)-1-(2-Amino-3-(3-fluoro-4-((3-methyl-1H-pyrrolo[2,3-b]pyridin-4-yl)oxy)phenyl)propanamido)cyclobutane-1-carboxamide] | < 3 | < 3
2 | Cc1c[nH]c2nccc(Oc3ccc(C[C@H](N)C(=O)NC4(C(=O)NCCO)CCCCC4)cc3F)c12 [Example 44, (S)-1-(2-amino-3-(3-fluoro-4-((3-methyl-1H-pyrrolo[2,3-b]pyridin-4-yl)oxy)phenyl)propanamido)-N-(2-hydroxyethyl)cyclohexanecarboxamide] | < 3 | < 3
3 | Cc1c[nH]c2ncnc(Oc3ccc(C[C@H](N)C(=O)NC4(CCO)CCCCC4)cc3F)c12 [Example 34, (S)-2-amino-3-(3-fluoro-4-((5-methyl-7H-pyrrolo[2,3-d]pyrimidin-4-yl)oxy)phenyl)-N-(1-(2-hydroxyethyl)cyclohexyl)propanamide] | < 3 | < 3
4 | Cc1c[nH]c2nccc(Oc3ccc(C[C@H](N)C(=O)NC4(C)CCN(C)CC4)cc3F)c12 [Example 4, (S)-2-Amino-N-(1,4-dimethylpiperidin-4-yl)-3-(3-fluoro-4-((3-methyl-1H-pyrrolo[2,3-b]pyridin-4-yl)oxy)phenyl)propanamide] | < 3 | < 3
5 | Cc1c[nH]c2nccc(Oc3ccc(C[C@H](N)C(=O)N4CCc5ccncc5C4)cc3F)c12 [Example 22, (S)-2-Amino-1-(3,4-dihydro-2,7-naphthyridin-2(1H)-yl)-3-(3-fluoro-4-((3-methyl-1H-pyrrolo[2,3-b]pyridin-4-yl)oxy)phenyl)propan-1-one] | < 3 | < 3
6 | Cc1c[nH]c2nccc(Oc3ccc(C[C@H](N)C(=O)NC4CCN(CC(C)C)CC4)cc3F)c12 [Example 6, (S)-2-Amino-3-(3-fluoro-4-((3-methyl-1H-pyrrolo[2,3-b]pyridin-4-yl)oxy)phenyl)-N-(1-isobutylpiperidin-4-yl)propanamide] | < 3 | < 3
7 | Cc1c[nH]c2nccc(Oc3c(F)cc(C[C@H](N)C(=O)N4CCC(S(=O)(=O)c5ccccc5)CC4)cc3F)c12 [Example 42, (S)-2-amino-3-(3,5-difluoro-4-((3-methyl-1H-pyrrolo[2,3-b]pyridin-4-yl)oxy)phenyl)-1-(4-(phenylsulfonyl)piperidin-1-yl)propan-1-one] | < 3 | < 3
8 | Cc1c[nH]c2nccc(Oc3ccc(C[C@H](N)C(=O)NC4CCN(C5CCOC5)CC4)cc3F)c12 (stereo partly drawn) [Example 2, (2S)-2-Amino-3-(3-fluoro-4-((3-methyl-1H-pyrrolo[2,3-b]pyridin-4-yl)oxy)phenyl)-N-(1-(tetrahydrofuran-3-yl)piperidin-4-yl)propanamide] | < 3 | < 3
9 | CNC(=O)C1(NC(=O)[C@@H](N)Cc2ccc(Oc3ccnc4[nH]cc(C)c34)c(F)c2)CCCCC1 [Example 29, (S)-1-(2-amino-3-(3-fluoro-4-((3-methyl-1H-pyrrolo[2,3-b]pyridin-4-yl)oxy)phenyl)propanamido)-N-methylcyclohexane-1-carboxamide] | < 3 | < 3

Continued, values first:

Row | Ki (ROCK 2 (Rho kinase 2)) [nM] | Ki (ROCK 1 (Rho kinase 1)) [nM] | SMILES
10 | < 3 | < 3 | Cc1c[nH]c2nccc(Oc3ccc(C[C@H](N)C(=O)NC4CCN(C5CCC5)CC4)cc3F)c12 [Example 1, (S)-2-Amino-N-(1-cyclobutylpiperidin-4-yl)-3-(3-fluoro-4-((3-methyl-1H-pyrrolo[2,3-b]pyridin-4-yl)oxy)phenyl)propanamide]
11 | < 3 | < 3 | Cc1c[nH]c2nccc(Oc3ccc(C[C@H](N)C(=O)NC4(C(N)=O)CCN(C5CC5)CC4)cc3F)c12 [Example 21, (S)-4-(2-Amino-3-(3-fluoro-4-((3-methyl-1H-pyrrolo[2,3-b]pyridin-4-yl)oxy)phenyl)propanamido)-1-cyclopropylpiperidine-4-carboxamide]
12 | < 3 | < 3 | CNC(=O)C1(NC(=O)[C@@H](N)Cc2ccc(Oc3ncnc4[nH]cc(C)c34)c(F)c2)CCCCC1 [Example 33, (S)-1-(2-amino-3-(3-fluoro-4-((5-methyl-7H-pyrrolo[2,3-d]pyrimidin-4-yl)oxy)phenyl)propanamido)-N-methylcyclohexanecarboxamide]
13 | < 3 | < 3 | Cc1c[nH]c2nccc(Oc3ccc(C[C@H](N)C(=O)N[C@@H]4CCN(C)C4)cc3F)c12 [Example 10, (S)-2-Amino-3-(3-fluoro-4-((3-methyl-1H-pyrrolo[2,3-b]pyridin-4-yl)oxy)phenyl)-N-((R)-1-methylpyrrolidin-3-yl)propanamide]
14 | < 3 | < 3 | COCCNC(=O)C1(NC(=O)[C@@H](N)Cc2ccc(Oc3ccnc4[nH]cc(C)c34)c(F)c2)CCCCC1 [Example 43, (S)-1-(2-amino-3-(3-fluoro-4-((3-methyl-1H-pyrrolo[2,3-b]pyridin-4-yl)oxy)phenyl)propanamido)-N-(2-methoxyethyl)cyclohexanecarboxamide]
15 | < 3 | < 3 | Cc1c[nH]c2nccc(Oc3ccc(C[C@H](N)C(=O)N4C[C@@H]5CN(C6CC6)C[C@@H]5C4)cc3F)c12 [Example 12, (S)-2-Amino-1-((3aR,6aS)-5-cyclopropylhexahydropyrrolo[3,4-c]pyrrol-2(1H)-yl)-3-(3-fluoro-4-((3-methyl-1H-pyrrolo[2,3-b]pyridin-4-yl)oxy)phenyl)propan-1-one]
16 | < 3 | < 3 | Cc1c[nH]c2ncnc(Oc3c(F)cc(C[C@H](N)C(=O)N4CCC(S(=O)(=O)c5ccccc5)CC4)cc3F)c12 [Example 41, (S)-2-Amino-3-(3,5-difluoro-4-((5-methyl-7H-pyrrolo[2,3-d]pyrimidin-4-yl)oxy)phenyl)-1-(4-(phenylsulfonyl)piperidin-1-yl)propan-1-one]
17 | < 3 | 3 to 30 | Cc1c[nH]c2nccc(Oc3ccc(C[C@H](N)C(=O)N4CCN(C)CC45CC5)cc3F)c12 [Example 11, (S)-2-Amino-3-(3-fluoro-4-((3-methyl-1H-pyrrolo[2,3-b]pyridin-4-yl)oxy)phenyl)-1-(7-methyl-4,7-diazaspiro[2.5]octan-4-yl)propan-1-one]
18 | < 3 | < 3 | Cc1c[nH]c2nccc(Oc3ccc(C[C@H](N)C(=O)NC4CCN(C)CC4(C)C)cc3F)c12 (single isomer, unassigned) [Example 8a]
19 | < 3 | < 3 | Cc1c[nH]c2nccc(Oc3ccc(C[C@H](N)C(=O)NC4(CO)CCN(C5CC5)CC4)cc3F)c12 [Example 20, (S)-2-Amino-N-(1-cyclopropyl-4-(hydroxymethyl)piperidin-4-yl)-3-(3-fluoro-4-((3-methyl-1H-pyrrolo[2,3-b]pyridin-4-yl)oxy)phenyl)propanamide]
20 | < 3 | < 3 | Cc1c[nH]c2ncnc(Oc3ccc(C[C@H](N)C(=O)N4CC[C@H](S(=O)(=O)c5ccccc5)C4)cc3F)c12 [Example 38, (S)-2-Amino-3-(3-fluoro-4-((5-methyl-7H-pyrrolo[2,3-d]pyrimidin-4-yl)oxy)phenyl)-1-((S)-3-(phenylsulfonyl)pyrrolidin-1-yl)propan-1-one]
21 | < 3 | < 3 | Cc1c[nH]c2nccc(Oc3ccc(C[C@H](N)C(=O)NC4CCN(C5CC5)CC4)cc3F)c12 [Example 5, (S)-2-Amino-N-(1-cyclopropylpiperidin-4-yl)-3-(3-fluoro-4-((3-methyl-1H-pyrrolo[2,3-b]pyridin-4-yl)oxy)phenyl)propanamide]
